Patent publication US10106558B2, “Azolobenzazine compounds, compositions comprising these compounds and their use for controlling invertebrate pests” (BASF SE, priority 2015, dated 2018)
Where two headings read alike, the source gives them in different places.

What was measured:
Format in all cases: in vivo
[1] = system: Diamond Back Moth (Plutella xylostella); assay: Action on diamond back moth, dipped cabbage leaves; details: 3rd instar larvae, 72 hours after treatment, read-out: mortality in comparison with untreated controls
Description: Example B9: Action on Diamond Back Moth (Plutella xylostella)
The active compound is dissolved at the desired concentration in a mixture of 1:1 (vol:vol) distilled water:acetone. Surfactant (Kinetic® HV) is added at a rate of 0.01% (vol/vol). The test solution is prepared at the day of use.
Leaves of cabbage were dipped in test solution and air-dried. Treated leaves were placed in petri dishes lined with moist filter paper and inoculated with ten 3rd instar larvae. Mortality was recorded 72 hours after treatment. Feeding damages were also recorded using a scale of 0-100%.

[2] = system: yellow fever mosquito (Aedes aegypti); assay: whole plant or invertebrate; details: 48 h, larval mortality visually assessed after 2 days, read-out: mortality in comparison with untreated controls
Description: Example B1: Action on Yellow Fever Mosquito (Aedes aegypti)
For evaluating control of yellow fever mosquito (Aedes aegypti) the test unit consisted of 96-well-microtiter plates containing 200 μl of tap water per well and 5-15 freshly hatched A. aegypti larvae.
The active compounds were formulated using a solution containing 75% (v/v) water and 25% (v/v) DMSO. Different concentrations of formulated compounds or mixtures were sprayed onto the insect diet at 2.5 μl, using a custom built micro atomizer, at two replications.
After application, microtiter plates were incubated at 28+1° C., 80+5% RH for 2 days. Larval mortality was then visually assessed.

[3] = system: Orchid Thrips (Dichromothrips corbetti); assay: Action on orchid thrips, floral-immersion technique; details: adult thrips, 72 hours after treatment, read-out: mortality in comparison with untreated controls
Description: Example B2: Action on Orchid Thrips (Dichromothrips Corbetti)
Dichromothrips corbettiadults used for bioassay were obtained from a colony maintained continuously under laboratory conditions. For testing purposes, the test compound is diluted in a 1:1 mixture of acetone:water (vol:vol), plus Kinetic® HV at a rate of 0.01% v/v.
Thrips potency of each compound was evaluated by using a floral-immersion technique. All petals of individual, intact orchid flowers were dipped into treatment solution and allowed to dry in Petri dishes. Treated petals were placed into individual re-sealable plastic along with about 20 adult thrips. All test arenas were held under continuous light and a temperature of about 28° C. for duration of the assay. After 3 days, the numbers of live thrips were counted on each petal. The percent mortality was recorded 72 hours after treatment.

[4] = system: boll weevil (Anthonomus grandis); assay: Action on boll weevil, eggs on insect diet in 96-well microtiter plates; details: 120 h, read-out: mortality in comparison with untreated controls
Description: Example B3: Action on Boll Weevil (Anthonomus grandis)
For evaluating control of boll weevil (Anthonomus grandis) the test unit consisted of 96-well-microtiter plates containing an insect diet and 5-10 A. grandis eggs.
(§1) The compounds were formulated using a solution containing 75% v/v water and 25% v/v DMSO. Different concentrations of formulated compounds were sprayed onto the insect diet at 5 μl, using a custom built micro atomizer, at two replications.
After application, microtiter plates were incubated at about 25±1° C. and about 75±5% relative humidity for 5 days. Egg and larval mortality was then visually assessed.

[5] = system: green peach aphid (Myzus persicae) (mixed life stages); assay: Action on green peach aphid, liquid artificial diet under artificial membrane; details: 72 h, read-out: mortality in comparison with untreated controls
Source text: Example B8: Action on Green Peach Aphid (Myzus persicae) (Mixed Life Stages)
For evaluating control of green peach aphid (Myzus persicae) through systemic means the test unit consisted of 96-well-microtiter plates containing liquid artificial diet under an artificial membrane.
The compounds were formulated using a solution containing 75% v/v water and 25% v/v DMSO. Different concentrations of formulated compounds were pipetted into the aphid diet, using a custom built pipetter, at two replications.
After application, 5-8 adult aphids were placed on the artificial membrane inside the microtiter plate wells. The aphids were then allowed to suck on the treated aphid diet and incubated at about 23±1° C. and about 50±5% relative humidity for 3 days. Aphid mortality and fecundity was then visually assessed.

[6] = system: Mediterranean fruitfly (Ceratitis capitata); assay: Action on Mediterranean fruitfly, eggs on insect diet in microtiter plates; details: 120 h, egg and larval mortality visually assessed after 5 days, read-out: mortality in comparison with untreated controls
Description: Example B5: Action on Mediterranean Fruitfly (Ceratitis capitata)
For evaluating control of Mediterranean fruitfly (Ceratitis capitata) the test unit consisted of microtiter plates containing an insect diet and 50-80 C. capitata eggs.
as §1
After application, microtiter plates were incubated at about […] and about 80+5% relative humidity for 5 days. Egg and larval mortality was then visually assessed.

[7] = system: tobacco budworm (Heliothis virescens); assay: Action on tobacco budworm, eggs on insect diet in 96-well microtiter plates; details: 120 h, egg and larval mortality visually assessed after 5 days, read-out: mortality in comparison with untreated controls
Description: Example B6: Action on Tobacco Budworm (Heliothis virescens)
For evaluating control of tobacco budworm (Heliothis virescens) the test unit consisted of 96-well-microtiter plates containing an insect diet and 15-25 H. virescens eggs.
The compounds were formulated using a solution containing 75% v/v water and 25% v/v DMSO. Different concentrations of formulated compounds were sprayed onto the insect diet at 10 μl, using a custom built micro atomizer, at two replications.
After application, microtiter plates were incubated at about 28±1° C. and about 80±5% relative humidity for 5 days. Egg and larval mortality was then visually assessed.

[8] = system: Southern Armyworm (Spodoptera eridania), 2nd instar larvae; assay: Action on southern armyworm 2nd instar larvae, sprayed lima bean plants; details: 96 h, 4 days after treatment, read-out: mortality in comparison with untreated controls
Description: Example B10: Action on Southern Armyworm (Spodoptera eridania), 2nd Instar Larvae
The active compounds were formulated by a Tecan liquid handler in 100% cyclohexanone as a 10,000 ppm solution supplied in tubes. The 10,000 ppm solution was serially diluted in 100% cyclohexanone to make interim solutions. These served as stock solutions for which final dilutions were made by the Tecan in 50% acetone:50% water (v/v) into 10 or 20 ml glass vials. A nonionic surfactant (Kinetic®) was included in the solution at a volume of 0.01% (v/v). The vials were then inserted into an automated electrostatic sprayer equipped with an atomizing nozzle for application to plants/insects.
Lima bean plants (variety Sieva) were grown 2 plants to a pot and selected for treatment at the 1st true leaf stage. Test solutions were sprayed onto the foliage by an automated electrostatic plant sprayer equipped with an atomizing spray nozzle. The plants were dried in the sprayer fume hood and then removed from the sprayer. Each pot was placed into perforated plastic bags with a zip closure. About 10 to 11 armyworm larvae were placed into the bag and the bags zipped closed. Test plants were maintained in a growth room at about 25° C. and about 20-40% relative humidity for 4 days, avoiding direct exposure to fluorescent light (24 hour photoperiod) to prevent trapping of heat inside the bags. Mortality and reduced feeding were assessed 4 days after treatment, compared to untreated control plants.

[9] = system: Silverleaf Whitefly (Bemisia argentifolii) (Adults); assay: Action on silverleaf whitefly adults, sprayed cotton plants; details: 72 h, 3 days after treatment, read-out: mortality in comparison with untreated controls
Description: Example B4: Action on Silverleaf Whitefly (Bemisia argentifolii) (Adults)
The active compounds were formulated by a Tecan liquid handler in 100% cyclohexanone as a 10,000 ppm solution supplied in tubes. The 10,000 ppm solution was serially diluted in 100% cyclohexanone to make interim solutions. These served as stock solutions for which final dilutions were made by the Tecan in 50% acetone:50% water (v/v) into 5 or 10 ml glass vials. A nonionic surfactant (Kinetic®) was included in the solution at a volume of 0.01% (v/v). The vials were then inserted into an automated electrostatic sprayer equipped with an atomizing nozzle for application to plants/insects.
Cotton plants at the cotyledon stage (one plant per pot) were sprayed by an automated electrostatic plant sprayer equipped with an atomizing spray nozzle. The plants were dried in the sprayer fume hood and then removed from the sprayer. Each pot was placed into a plastic cup and about 10 to 12 whitefly adults (approximately 3-5 days old) were introduced. The insects were collected using an aspirator and a nontoxic Tygon® tubing connected to a barrier pipette tip. The tip, containing the collected insects, was then gently inserted into the soil containing the treated plant, allowing insects to crawl out of the tip to reach the foliage for feeding. Cups were covered with a reusable screened lid. Test plants were maintained in a growth room at about 25° C. and about 20-40% relative humidity for 3 days, avoiding direct exposure to fluorescent light (24 hour photoperiod) to prevent trapping of heat inside the cup. Mortality was assessed 3 days after treatment, compared to untreated control plants.

[10] = system: vetch aphid (Megoura viciae); assay: Action on vetch aphid, broad bean leaf disks in 24-well microtiter plates; details: foliar, 120 h, adult aphids on treated leaf disks, 5 days, read-out: mortality in comparison with untreated controls
Description: Example B7: Action on Vetch Aphid (Megoura viciae)
For evaluating control of vetch aphid (Megoura viciae) through contact or systemic means the test unit consisted of 24-well-microtiter plates containing broad bean leaf disks.
The compounds were formulated using a solution containing 75% v/v water and 25% v/v DMSO. Different concentrations of formulated compounds were sprayed onto the leaf disks at 2.5 μl, using a custom built micro atomizer, at two replications.
After application, the leaf disks were air-dried and 5-8 adult aphids placed on the leaf disks inside the microtiter plate wells. The aphids were then allowed to suck on the treated leaf disks and incubated at about 23±1° C. and about 50±5% relative humidity for 5 days. Aphid mortality and fecundity was then visually assessed.

[11] = 800 ppm, egg and larval mortality visually assessed after 5 days
[12] = 800 ppm, adult aphids on treated aphid diet, 3 days

Cc1ccc(C(C)C)c(NC(=S)N/N=C/c2ccc3c(ccc4c3ncn4-c3ccc(OC(F)(F)F)cc3)n2)c1 [Compound C-5, 1-(2-isopropyl-5-methyl-phenyl)-3-[(E)-[3-[4-(trifluoromethoxy)phenyl]imidazo[4,5-f]quinolin-7-yl]methyleneamino]thiourea]
≥ 75%: mortality at 500 ppm [1] | mortality at 800 ppm [2] | mortality at 500 ppm [3] | mortality at 800 ppm [4, 11] | mortality at 800 ppm [5, 12] | mortality at 800 ppm [6] | mortality at 800 ppm [7] | mortality at 500 ppm [8]

CC(C)c1ccccc1N1/C(=N/N=C/c2ccc3c(ccc4c3ncn4-c3ccc(OC(F)(F)F)cc3)n2)SCC1(C)O (centres unmarked) [Compound C-9, (2Z)-3-(2-isopropylphenyl)-4-methyl-2-[(E)-[3-[4-(trifluoromethoxy)phenyl]imidazo[4,5-f]quinolin-7-yl]methylenehydrazono]thiazolidin-4-ol]
≥ 75%: mortality at 500 ppm [1] | mortality at 800 ppm [2] | mortality at 500 ppm [3] | mortality at 800 ppm [4, 11] | mortality at 800 ppm [5, 12] | mortality at 800 ppm [6] | mortality at 500 ppm [9] | mortality at 800 ppm [7] | mortality at 500 ppm [8]

CC(C)c1ccccc1N1C(=O)CS/C1=N\N=C\c1ccc2c(ccc3c2ncn3-c2ccc(C(F)(F)F)nn2)n1 [Compound C-10, (2Z)-3-(2-isopropylphenyl)-2-[(E)-[3-[6-(trifluoromethyl)pyridazin-3-yl]imidazo[4,5-f]quinolin-7-yl]methylenehydrazono]thiazolidin-4-one]
≥ 75%: mortality at 500 ppm [1] | mortality at 500 ppm [3] | mortality at 800 ppm [4, 11] | mortality at 800 ppm [10] | mortality at 800 ppm [6] | mortality at 500 ppm [9] | mortality at 800 ppm [7] | mortality at 500 ppm [8]

CC(OC(=O)Nc1ccc2c(ccc3c2ncn3-c2ccc(OC(F)(F)F)cc2)n1)c1ccc(Cl)cn1 (centres unmarked) [Compound C-11, 1-(5-chloro-2-pyridyl)ethyl N-[3-[4-(trifluoromethoxy)phenyl]imidazo[4,5-f]quinolin-7-yl]carbamate]
≥ 75%: mortality at 800 ppm [2] | mortality at 800 ppm [4] | mortality at 800 ppm [5]

Cc1cccc(C)c1N1CCCS/C1=N/N=C/c1ccc2c(ccc3c2ncn3-c2ccc(OC(F)(F)F)cc2)n1 [Compound C-23, (E)-3-(2,6-dimethylphenyl)-N-[(E)-[3-[4-(trifluoromethoxy)phenyl]imidazo[4,5-f]quinolin-7-yl]methyleneamino]-1,3-thiazinan-2-imine]
≥ 75%: mortality at 500 ppm [1] | mortality at 800 ppm [2] | mortality at 500 ppm [3] | mortality at 800 ppm [4, 11] | mortality at 800 ppm [6] | mortality at 500 ppm [9] | mortality at 800 ppm [7] | mortality at 500 ppm [8]

CC(C)c1ccccc1/N=C1\SCC(=O)N1/N=C/c1cc2ccc3c(ncn3-c3ccc(OC(F)(F)F)cc3)c2cn1 [Compound C-28, (2Z)-2-(2-isopropylphenyl)imino-3-[(E)-[3-[4-(trifluoromethoxy)phenyl]imidazo[4,5-h]isoquinolin-7-yl]methyleneamino]thiazolidin-4-one]
≥ 75%: mortality at 500 ppm [1] | mortality at 800 ppm [2] | mortality at 800 ppm [4, 11] | mortality at 800 ppm [10] | mortality at 800 ppm [6] | mortality at 800 ppm [7] | mortality at 500 ppm [8]

Cc1cccc(C)c1N1CCS/C1=N/N=C/c1ccc2c(ccc3c2ncn3-c2ccc(OC(F)(F)F)cc2)n1 [Compound C-30, (E)-3-(2,6-dimethylphenyl)-N-[(E)-[3-[4-(trifluoromethoxy)phenyl]imidazo[4,5-f]quinolin-7-yl]methyleneamino]thiazolidin-2-imine]
≥ 75%: mortality at 500 ppm [1] | mortality at 800 ppm [4, 11] | mortality at 800 ppm [5, 12] | mortality at 800 ppm [7]
